# Reference: patent US20080207596A1, “Novel compounds 329” (priority 2006, published 2008)
# Biological target: T1, human active recombinant p38α-6His tagged (Homo sapiens, UniProt Q16539)
# T1 construct: 6His
# Assay: P38 alpha enzyme assay (AlphaScreen, biotinylated-ATF2 substrate)
# Format: biochemical
# Conditions: 4 hours pre-incubation at 37° C., 1 mM ATP added
# Description: Enzyme assays were performed in polypropylene 96 well plates. The following solutions were added to each well; 10 μL of compound dilutions in assay buffer (20 mM HEPES pH 7.4, containing 20 mM magnesium acetate, 0.005% (w/v) Tween-20, 10 mM DTT) containing 1% (v/v) DMSO or assay buffer containing 1% (v/v) DMSO alone, 70 μL of assay buffer containing 36 nM substrate (biotinylated-ATF2) and 10 μL of an appropriate dilution of human active recombinant p38α-6His tagged. Depending on batch of p38, an appropriate dilution was typically a 5 nM solution to give a final enzyme concentration of 0.5 nM. At this stage, background control wells also received 50 μL of AlphaScreen quench buffer (10 mM HEPES pH 7.4 containing 100 mM EDTA, 0.2% (w/v) bovine serum albumin). The plate was covered, pre-incubated for 4 hours at 37° C. and the enzyme reaction initiated by addition of 10 μL 1 mM ATP. After incubation for a further 45 minutes at 37° C., the reaction was stopped by addition of 50 μL quench reagent and 50 μL of the quenched reaction mixture transferred to an opaque, white 96-well plate. Detection reagent, 25 μL of 10 mM HEPES pH 7.4 containing 100 mM EDTA, 0.2% (w/v) bovine serum albumin, 0.3 nM anti phosphoATF2 antibody and 25 μg/mL of AlphaScreen protein A acceptor and donor beads, was added to all wells in a darkened room, the plate sealed and left in the dark for between 5 and 24 hours before AlphaScreen readings were taken using a Perkin Elmer EnVision reader.
# T1 sequence (Q16539 whole entry): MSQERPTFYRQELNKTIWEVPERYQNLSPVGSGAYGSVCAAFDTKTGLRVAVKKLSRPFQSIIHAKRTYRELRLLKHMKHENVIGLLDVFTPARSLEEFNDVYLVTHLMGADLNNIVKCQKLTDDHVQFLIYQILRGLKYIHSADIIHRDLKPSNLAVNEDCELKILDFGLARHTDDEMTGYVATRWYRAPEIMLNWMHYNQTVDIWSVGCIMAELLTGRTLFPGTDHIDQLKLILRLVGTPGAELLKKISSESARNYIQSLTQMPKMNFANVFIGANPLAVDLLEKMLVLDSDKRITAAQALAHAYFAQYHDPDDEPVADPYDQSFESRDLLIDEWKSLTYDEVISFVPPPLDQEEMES
row,IC50,Structure (SMILES)
1,0.2 nM,"Cc1ccc(NC(=O)c2ccnc(-c3cccs3)c2)cc1-n1ccc2ccc(OCCN(C)C)cc2c1=O [Example 9, N-{3-[7-[2-(dimethylamino)ethoxy]-1-oxoisoquinolin-2(1H)-yl]-4-methylphenyl}-2-(2-thienyl)isonicotinamide]"
2,10 nM,"Cc1ccc(NC(=O)c2cccc(N3CCCCC3)c2)cc1-n1ccc2ccc(OCCN3CCCC3)cc2c1=O [Example 1, N-{4-Methyl-3-[1-oxo-7-(2-pyrrolidin-1-ylethoxy)isoquinolin-2(1H)-yl]phenyl}-3-piperidin-1-ylbenzamide]"
3,0.794 nM,"Cc1ccc(NC(=O)c2cccc(-c3cnco3)c2)cc1-n1ccc2ccc(OCCCN3CCCC3)cc2c1=O [Example 11, N-{4-Methyl-3-[1-oxo-7-(3-pyrrolidin-1-ylpropoxy)isoquinolin-2(1H)-yl]phenyl}-3-(1,3-oxazol-5-yl)benzamide]"
4,2 nM,"Cc1ccc(NC(=O)c2ccnc(N3CCCC3)c2)cc1-n1ccc2ccc(OCCN3CCCC3)cc2c1=O [Example 5, N-{4-Methyl-3-[1-oxo-7-(2-pyrrolidin-1-ylethoxy)isoquinolin-2(1H)-yl]phenyl}-2-pyrrolidin-1-ylisonicotinamide]"
